Here are results for seven compounds from PubChem BioAssay (NCI).

Among the test systems are A549 NSCLC; ACHN renal; BT-549 breast; DU-145 prostate; HL-60(TB) leukemia; HOP-62 NSCLC; HOP-92 NSCLC; LOX IMVI melanoma; MCF7 breast; MDA-MB-435; NCI-H460 lung; NCI-H522 lung; OVCAR-3 ovarian; OVCAR-4 ovarian; PC-3 prostate; SF-268 CNS; SK-OV-3 ovarian; SN12C renal.
What all share (assay): NCI-60 cell line screen, 48 h

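Interpolation was linear, between the two tested concentrations surrounding the appropriate level; five concentrations were tested over 48 hours in 96-well plates. TGI: concentration producing complete growth inhibition.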 *1 amine or outer side, *2 acyl side, *3 side chain or, on linkers, in order; H or OH if unused. Where a SMILES comes first, the peptide text is derived from it. Bridges are numbered along the chain shown (N, C = ends). [ ]: non-standard residue; d: D form. The star is where a group is joined. X34 = O=C(C(CCCCNO[*:3])N[*:1])[*:2]; Fmoc = O=C(OCC1c2ccccc2-c2ccccc21)*

As for `C#Cc1cc(Br)c(OC(=O)C(C)(C)C)c(-c2cc(C#C)cc(Br)c2OC(=O)C(C)(C)C)c1`, the TGI is greater than 100 µM in the assay on A549 NSCLC; 73.8 µM with ACHN renal; greater than 100 µM with BT-549 breast; greater than 100 µM with DU-145 prostate; 30.3 µM in the assay with HL-60(TB) leukemia; greater than 100 µM in the assay on HOP-62 NSCLC. Besides, the TGI in the assay with HOP-92 NSCLC was greater than 100 µM; in the assay on LOX IMVI melanoma, 49.1 µM; with MCF7 breast, greater than 100 µM; in the assay on MDA-MB-435, greater than 100 µM; in the assay on NCI-H460 lung it was greater than 100 µM; with NCI-H522 lung it was greater than 100 µM. Besides, the TGI in the assay on OVCAR-3 ovarian, in the assay on OVCAR-4 ovarian, in the assay with PC-3 prostate, with SF-268 CNS, in the assay with SK-OV-3 ovarian and with SN12C renal was greater than 100 µM throughout.
Regarding `CSC1=NNC(SC)=NN1`, the TGI with A549 NSCLC turned out to be 0.406 µM; with ACHN renal it was 0.304 µM; in the assay on BT-549 breast, 0.348 µM; in the assay with DU-145 prostate, 0.345 µM; with HL-60(TB) leukemia, 0.407 µM; in the assay with HOP-62 NSCLC, 0.398 µM. The TGI amounted to 0.316 µM in the assay on HOP-92 NSCLC; 0.287 µM in the assay on LOX IMVI melanoma; 0.396 µM with MCF7 breast; 0.321 µM with MDA-MB-435; 0.385 µM with NCI-H460 lung; 0.555 µM in the assay with NCI-H522 lung. Further, the TGI in the assay on OVCAR-3 ovarian is 0.359 µM; in the assay on OVCAR-4 ovarian, 0.309 µM; in the assay on PC-3 prostate, 0.303 µM; in the assay on SF-268 CNS, 0.351 µM; in the assay on SK-OV-3 ovarian, 0.382 µM; with SN12C renal, 0.322 µM.
Take `CSc1nc2c(c(N3CCOCC3)n1)C(O)n1c(nc3ccccc31)S2` (stereo unspecified): the TGI in the assay with A549 NSCLC, in the assay with ACHN renal, with BT-549 breast, with DU-145 prostate, with HL-60(TB) leukemia and in the assay with HOP-62 NSCLC was greater than 100 µM throughout. Moreover, the TGI in the assay with HOP-92 NSCLC, with LOX IMVI melanoma, with MCF7 breast, in the assay on MDA-MB-435, in the assay on NCI-H460 lung and with NCI-H522 lung was greater than 100 µM throughout. Besides, the TGI in the assay with OVCAR-3 ovarian, in the assay on OVCAR-4 ovarian, in the assay on PC-3 prostate, in the assay with SF-268 CNS, with SK-OV-3 ovarian and with SN12C renal was greater than 100 µM each time.
In the case of `O=C1NNC2NC(=O)C3(NN2C1=O)c1ccccc1-c1ccccc13` (stereo unspecified), the TGI with A549 NSCLC, in the assay on ACHN renal, in the assay on BT-549 breast, with DU-145 prostate, with HL-60(TB) leukemia and in the assay on HOP-62 NSCLC was greater than 100 µM each time. Further, the TGI with HOP-92 NSCLC, in the assay on LOX IMVI melanoma, in the assay on MCF7 breast, with MDA-MB-435, in the assay on NCI-H460 lung and with NCI-H522 lung was greater than 100 µM in each case. The TGI in the assay on OVCAR-3 ovarian, in the assay on OVCAR-4 ovarian, in the assay with PC-3 prostate, in the assay on SF-268 CNS, in the assay on SK-OV-3 ovarian and with SN12C renal was greater than 100 µM throughout.
With `NC(=O)CNC(=O)C1CCCN1C(=O)C1CCCCNOC(=O)CCC(NC(=O)OCC2c3ccccc3-c3ccccc32)C(=O)NC(Cc2c[nH]c3ccccc23)C(=O)N1` (stereo unspecified) (Fmoc-EW[X34]PG-NH2; ester 1-3; configuration not given here), the TGI with A549 NSCLC, in the assay on ACHN renal, with BT-549 breast, in the assay with DU-145 prostate, with HL-60(TB) leukemia and with HOP-62 NSCLC was greater than 100 µM each time. Further, the TGI with HOP-92 NSCLC, in the assay with LOX IMVI melanoma, in the assay with MCF7 breast, in the assay on MDA-MB-435, in the assay on NCI-H460 lung and with NCI-H522 lung was greater than 100 µM in each case. Besides, the TGI in the assay on OVCAR-3 ovarian, in the assay on OVCAR-4 ovarian, with PC-3 prostate, with SF-268 CNS, in the assay on SK-OV-3 ovarian and in the assay with SN12C renal was greater than 100 µM throughout.
Regarding `Cc1ccc(OCC2OC(n3cnc4c(Cl)nc(Cl)nc43)CC2Oc2ccc(C)cc2)cc1` (stereo unspecified), the TGI worked out at 11.9 µM in the assay on A549 NSCLC; 2.66 µM in the assay on ACHN renal; 4.3 µM with BT-549 breast; 3.84 µM in the assay on DU-145 prostate; 6.53 µM with HL-60(TB) leukemia; 7.37 µM in the assay with HOP-62 NSCLC. Also, the TGI in the assay on HOP-92 NSCLC stood at 6.4 µM; in the assay on LOX IMVI melanoma, 3.61 µM; with MCF7 breast it was 4.01 µM; in the assay on MDA-MB-435, 5.48 µM; in the assay on NCI-H460 lung, 3.39 µM; with NCI-H522 lung, 3.82 µM. In addition, the TGI is 6 µM in the assay with OVCAR-3 ovarian; 4.45 µM in the assay with OVCAR-4 ovarian; 6.57 µM with PC-3 prostate; 4.19 µM in the assay on SF-268 CNS; 35.9 µM in the assay with SK-OV-3 ovarian; 17.9 µM in the assay on SN12C renal.
For `COc1cc(/C=C\c2nnc(/C=C\c3ccc(O)c(OC)c3)s2)ccc1O`, the TGI with A549 NSCLC was greater than 54.7 µM; in the assay on ACHN renal, 22.3 µM; with BT-549 breast, 11.1 µM; with DU-145 prostate it was 8.26 µM; in the assay on HL-60(TB) leukemia it was 5.45 µM; in the assay with HOP-62 NSCLC it was 42 µM. Moreover, the TGI in the assay on HOP-92 NSCLC was 42.2 µM; in the assay with LOX IMVI melanoma it was 22.4 µM; with MCF7 breast, 11.3 µM; in the assay with MDA-MB-435, 0.549 µM; with NCI-H460 lung, greater than 35.2 µM; with NCI-H522 lung, 5.57 µM. The TGI with OVCAR-3 ovarian was 10.7 µM; in the assay with OVCAR-4 ovarian it was 19.9 µM; in the assay with PC-3 prostate, greater than 64.3 µM; in the assay on SF-268 CNS it was 41.2 µM; with SK-OV-3 ovarian it was 30.6 µM; in the assay on SN12C renal, greater than 92.8 µM.
